Legend:
[1] = tested on: MCF-7 breast carcinoma cells; test: Paclitaxel multiparameter cytotoxicity in MCF-7 cells attached to ECM spots of the array (Cellomics Multiparameter Cytotoxicity 3 kit); assay type: cell-based, human; settings: cells grown on matrix of collagen IV, collagen V and fibronectin in equal concentrations, compared with fibronectin alone
Procedure: The human breast adenocarcinoma cell line MCF-7 was purchased from American Type Culture Collection (ATCC). Cells were cultured in minimal essential medium (DMEM), supplemented with 10% FBS and antibiotics (100 IU/ml of penicillin G), then incubated at 37° C. in a humidified atmosphere of 5% CO2. […] MCF-7 cells were seeded into 4 well plates containing an exemplary microarray slide according to the present invention at a density of about 0.1×10^6 cells/ml in 5 ml complete medium (0.5×10^6 cells/slide, total 8 slides) and cultured at 37° C. After 7 h of incubation, non adherent cells were removed and the slide was washed 1× with complete culture medium. New media with varying concentrations of paclitaxel was added ranging from 0 nM-3 uM (0 nM, 3 nM, 10 nM, 30 nM, 100 nM, 300 nm, 1 μM, 3 μM). Cells were incubated for about 16 h at 37° C. Slides were processed using the protocol provided by the manufacturer of the Cellomics Multiparameter Cytotoxicity 3 kit, employing the reagents included in the kit. […] The resulting slides were kept protected from light and analyzed within about 24 h. […] Compartmental Analysis BioApplication (Cellomics) software was used to quantify fluorescent signal. […]

[2] = tested on: A549 lung cancer cell line; test: TGF-β-induced epithelial mesenchymal transition of A549 cells on MicroMatrix ECM array (e-cadherin / vimentin staining); assay type: cell-based, human
Procedure: Packages containing products which embody present invention (MicroMatrix™ slides) were removed from −20° C. and brought to room temperature (RT). Using sterile techniques, 4 MicroMatrix™ slides were removed from packaging and put into a 4-chamber slide tray. A549 cells (ATCC, Rockville, Md.) were cultured according to manufacturer's protocol in complete medium of DMEM containing 10% FBS and antibiotics (Life Technology, CA) in standard tissue culture treated T-75 flasks (Corning).
Cells were trypsinized with EDTA for 5 minutes and neutralized with 10 ml of complete medium. Neutralized cell suspensions were put into a 50 ml conical tube and centrifuged for 6 minutes at 1100 rpm. Five milliliters of complete medium containing 5×10^5 cells was added to each of 4 identical MicroMatrix™ slides in the slide tray. The tray was placed in a 37° C. incubator with 5% CO2 and cells were allowed to attach to ECM spots overnight (14 hrs).
Unattached cells and media were aspirated from the slides and 5 ml of media containing 1% FBS with or without 5 ng/ml of TGF-β were added to each chamber. After 24 hrs, media was aspirated from the chamber and 5 ml of 4% para-formaldehyde (PFA) in 1×PBS (fixation buffer) was added to each slide for 10 minutes at RT.
Fixation buffer was aspirated from chambers and fixed slides were stained for nuclei, e-cadherin and vimentin expression. Briefly, mouse anti-human e-cadherin antibody (BD, CA) and rabbit anti-human vimentin (Cell Signaling Technology) antibody were added to each of 4 slides at a 1:100 dilution in PBS at RT for 3 hours. […]
Cell adhesion was determined by the number of nuclei present on a spot. […] Cells adhered to ECM compositions that met the 25 cell/spot criteria were then analyzed for e-cadherin and vimentin expression using the same Bioapplication software. A ring was formed around segmented objects (nuclei) and fluorescence measurements for secondary channels were captured. Average intensities of e-cadherin and vimentin were calculated and normalized by cells per spot.

[3] = A549 on certain combinations of ECMs, 24 hrs, 5 ng/ml TGF-β, compared with other ECM compositions

In the case of `CC(=O)O[C@H]1C(=O)[C@@]2(C)[C@H]([C@H](OC(=O)c3ccccc3)[C@]3(O)C[C@H](OC(=O)[C@H](O)[C@@H](NC(=O)c4ccccc4)c4ccccc4)C(C)=C1C3(C)C)[C@]1(OC(C)=O)CO[C@@H]1C[C@@H]2O` [paclitaxel, Paclitaxel], the “cytotoxic response of MCF-7 cells to paclitaxel (same cytotoxicity parameters)” value [1] is reported as “maintain a resistance to paclitaxel”.

TGF-β was tested, and the “e-cadherin expression (epithelial marker)” value [2, 3] was “decreases in e-cadherin”, the “vimentin expression (mesenchymal marker)” value [2, 3] was “increases in vimentin expression” and the A549 cell attachment ([2]; certain ECM compositions that promote attachment without TGF-β, upon addition of TGF-β) was “cell detachment is observed”.

— US20140038847A1, “SCREENING AND CULTURING DEVICE AND METHODS FOR THE USE THEREOF” (Microstem, Inc., priority 2010, published 2014)
